Reference: US11472826B2, “Acyclic antivirals” (priority 2016, dated 2022)

The compounds below were run on VSV-G pseudotyped HIV NL4-3 (assay: microbe, parasite or virus in culture). Settings: Human immunodeficiency virus 1, NL43, 72 h.
Assay type: cell-based

Structure (SMILES)	EC50 [µM]
Nc1ncnn2c(COCCP(=O)(O)O)ccc12 [Compound 1, (2-((4-aminopyrrolo[2,1-f][1,2,4]triazin-7-yl)methoxy)ethyl)phosphonic Acid]	> 100
C[C@H](Cc1ccc2c(N)ncnn12)OCP(=O)(O)O [Compound 2, (R)-(((1-(4-aminopyrrolo[2,1-f][1,2,4]triazin-7-yl)propan-2-yl)oxy)methyl)phosphonic Acid]	20 to 100
Nc1ncnn2c(CCOCP(=O)(O)O)ccc12 [Compound 3, ((2-(4-aminopyrrolo[2,1-f][1,2,4]triazin-7-yl)ethoxy)methyl)phosphonic Acid]	> 100
C[C@H](Cc1nnc2c(N)ncnn12)OCP(=O)(O)O [Compound 4, (R)-(((1-(8-amino-[1,2,4]triazolo[3,4-f][1,2,4]triazin-3-yl)propan-2-yl)oxy)methyl)phosphonic Acid]	> 100
C[C@H](Cc1cnc2c(N)ncnn12)OCP(=O)(O)O [Compound 5, (R)-(((1-(4-aminoimidazo[2,1-f][1,2,4]triazin-7-yl)propan-2-yl)oxy)methyl)phosphonic Acid]	< 20
C[C@H](Cc1ncc2c(N)ncnn12)OCP(=O)(O)O [Compound 6, (R)-(((1-(4-aminoimidazo[5,1-f][1,2,4]triazin-7-yl)propan-2-yl)oxy)methyl)phosphonic Acid]	> 100
CC(Cc1cnn2c(N)ncnc12)OCP(=O)(O)O (stereo not shown) [Compound 7, (1-(4-aminopyrazolo[1,5-a][1,3,5]triazin-8-yl)propan-2-yloxy)methylphosphonic Acid]	< 20
CC(Cc1ccc2c(N)nc(F)nn12)OCP(=O)(O)O (stereo not shown) [Compound 8, (((1-(4-amino-2-fluoropyrrolo[2,1-f][1,2,4]triazin-7-yl)propan-2-yl)oxy)methyl)phosphonic Acid]	20 to 100
CC(Cc1ccc2c(N)nc(N)nn12)OCP(=O)(O)O (stereo not shown) [Compound 9, (((1-(2,4-diaminopyrrolo[2,1-f][1,2,4]triazin-7-yl)propan-2-yl)oxy)methyl) phosphonic Acid]	< 20
Nc1ncnc2c(CC(CF)OCP(=O)(O)O)cnn12 (stereo not shown) [Compound 10, (1-(4-aminopyrazolo[1,5-a][1,3,5]triazin-8-yl)-3-fluoropropan-2-yloxy)methylphosphonic Acid]	< 20
CC(C)OC(=O)OCOP(=O)(CO[C@H](C)Cc1ccc2c(N)ncnn12)OCOC(=O)OC(C)C [Compound 11]	< 20
C[C@H](Cc1cnn2c(N)ncnc12)OCP(=O)(O)O [Compound 29]	20 to 100
C[C@@H](Cc1cnn2c(N)ncnc12)OCP(=O)(O)O [Compound 30]	< 20

What follows are compounds tested against Recombinant full length HIV-1 Reverse Transcriptase (HIVrt) (Human immunodeficiency virus type 1 group M subtype B (isolate HXB2) (HIV-1), UniProt P04585) (assay: Inhibition of HIV reverse transcriptase (HIVrt RNA-dependent DNA polymerization assay)). Settings: 1 nM HIVrt, c5′UTR RNA template, 30° C., 40 min; phosphono diphosphates tested.
Assay type: biochemical
Procedure: Recombinant full length HIV-1 Reverse Transcriptase (HIVrt) was purchased from Abcam, catalog #ab63979. The last 385 nucleotide region of the HCV anti-genome complementary to the 5′ untranslated region (c5′UTR) was synthesized using T7 RNA polymerase Megascript kit from Ambion (Cat #AM1333). A DNA oligo served as an internal initiation primer and was purchased from IDT. Unless otherwise specified, reaction samples consisted of 20 nM c5′UTR RNA, 100 nM DNA primer, and 1 nM HIVrt, mixed together in a buffer containing 50 mM Tris pH 7.5, 100 mM KCl, 4 mM dithiothreitol (DTT), and 12.5 mM MgCl2. Reactions were initiated at 30° C. by adding 0.1 μM adenosine triphosphate (dATP), 0.1 μM cytosine triphosphate (dCTP), 1 μM guanosine triphosphate (dGTP), and 0.32 μM ^3H-thymidine triphosphate (^3H-TTP), in a final volume of 50 μL. After 40-mins incubation, the reaction was terminated by adding 60 μl of chilled 20% (w/v) trichloroacetic acid with 500 μM ATP to precipitate nucleic acids. After incubation at 4° C. for 1 h, the sample underwent filtration on a multiscreen BV 1.2-μm 96-well plate (Millipore). 40 μL Microscint-20 (Perkin Elmer) was added to the well and the counts in the sample were determined by a Trilux Microbeta microplate scintillation reader (Wallac).
All data were analyzed with GraphPad Prism. The compound concentration at which the enzyme-catalyzed rate was reduced by 50% (IC50) was calculated by fitting the data to the equation Y=% Min+(% Max−% Min)/(1+X/IC50), where Y corresponds to the percent relative enzyme activity, % Min is the residual relative activity at saturating compound concentration, % Max is the relative maximum enzyme activity, and X corresponds to the compound concentration. The Ki was calculated using the Cheng-Prusoff equation assuming competitive inhibition relative to natural dNTP incorporation: Ki=IC50/(1+[dNTP]/Km), where [dNTP] is the concentration of natural dNTP and Km is the apparent Km for dNTP. The standard HIVrt RNA-dependent DNA polymerization (RdDp) assay was used to determine the IC50 values.

Structure (SMILES)	IC50 [nM]
Nc1ncnn2c(COCCP(=O)(O)OP(=O)(O)OP(=O)(O)O)ccc12 [Compound 19]	≥ 250
Nc1ncnn2c(CCOCP(=O)(O)OP(=O)(O)OP(=O)(O)O)ccc12 [Compound 20]	< 50
C[C@H](Cc1ccc2c(N)ncnn12)OCP(=O)(O)OP(=O)(O)OP(=O)(O)O [Compound 21]	< 50
C[C@H](Cc1nnc2c(N)ncnn12)OCP(=O)(O)OP(=O)(O)OP(=O)(O)O [Compound 22]	≥ 250
C[C@H](Cc1cnc2c(N)ncnn12)OCP(=O)(O)OP(=O)(O)OP(=O)(O)O [Compound 23]	< 50
C[C@H](Cc1ncc2c(N)ncnn12)OCP(=O)(O)OP(=O)(O)OP(=O)(O)O [Compound 24]	≥ 250
C[C@H](Cc1cnn2c(N)ncnc12)OCP(=O)(O)OP(=O)(O)OP(=O)(O)O [Compound 25]	50 to 250
C[C@@H](Cc1cnn2c(N)ncnc12)OCP(=O)(O)OP(=O)(O)OP(=O)(O)O [Compound 26]	< 50
CC(Cc1ccc2c(N)nc(F)nn12)OCP(=O)(O)OP(=O)(O)OP(=O)(O)O (stereo not shown) [Compound 27]	< 50
CC(Cc1ccc2c(N)nc(N)nn12)OCP(=O)(O)OP(=O)(O)OP(=O)(O)O (stereo not shown) [Compound 28]	≥ 250
CC(Cc1ccc2c(=O)[nH]cnn12)OCP(=O)(O)OP(=O)(O)OP(=O)(O)O (stereo not shown) [Compound 55]	≥ 250
CC(Cc1ccc2c(=O)[nH]c(N)nn12)OCP(=O)(O)OP(=O)(O)OP(=O)(O)O (stereo not shown) [Compound 56]	< 50
CC(Cc1cnc2c(=O)[nH]c(N)nn12)OCP(=O)(O)OP(=O)(O)OP(=O)(O)O (stereo not shown) [Compound 57]	50 to 250
Nc1ncnc2c(C[C@@H](CF)OCP(=O)(O)OP(=O)(O)OP(=O)(O)O)cnn12 [Compound 58]	< 50
Nc1ncnc2c(C[C@H](CF)OCP(=O)(O)OP(=O)(O)OP(=O)(O)O)cnn12 [Compound 59]	< 50
Nc1ncnc2c(CC3(OCP(=O)(O)OP(=O)(O)OP(=O)(O)O)CC3)cnn12 [Compound 60]	50 to 250
Nc1ncnc2c(C[C@H](OCP(=O)(O)OP(=O)(O)OP(=O)(O)O)C(F)F)cnn12 [Compound 79]	≥ 250
Nc1ncnn2c(C[C@@H](CF)OCP(=O)(O)OP(=O)(O)OP(=O)(O)O)cnc12 [Compound 80]	50 to 250
Nc1ncnc2c(C[C@@H](OCP(=O)(O)OP(=O)(O)OP(=O)(O)O)C(F)F)cnn12 [Compound 81]	50 to 250
Nc1ncnn2c(C[C@H](CF)OCP(=O)(O)OP(=O)(O)OP(=O)(O)O)cnc12 [Compound 82]	50 to 250
CC(C)(Cc1cnn2c(=O)[nH]c(N)nc12)OCP(=O)(O)OP(=O)(O)OP(=O)(O)O [Compound 83]	≥ 250

These compounds were tested on HBV (assay: microbe, parasite or virus in culture). Settings: HepG2.117 cells, 72 hours, HBV viral copy numbers in supernatant; read-out: EC50.
Assay type: cell-based

Structure (SMILES)	EC50 [nM]
Nc1ncnc2c(C[C@H](OCP(=O)(O)O)C(F)F)cnn12 [Compound 65, (S) (((3-(4-aminoprazolo[1,5-a][1,3,5]triazin-8-yl)-1,1-difluoropropan-2-yl)oxy)methyl)phosphonic Acid]	1000 to 10000

Same assay, conditions: Hepatitis B virus, HepG2.117, 72 h

Structure (SMILES)	EC50 [nM]
CC(C)OC(=O)[C@H](C)NP(=O)(CO[C@H](C)Cc1cnn2c(N)ncnc12)Oc1ccccc1 (stereo partly shown) [Compound 52]	< 1000
CC(C)OC(=O)[C@H](C)NP(=O)(CO[C@H](C)Cc1cnc2c(N)ncnn12)Oc1ccccc1 (stereo partly shown) [Compound 53]	< 1000
CC(C)OC(=O)[C@H](C)NP(=O)(COC(C)Cc1cnc2c(=O)[nH]c(N)nn12)Oc1ccccc1 (stereo partly shown) [Compound 61]	< 1000
CC(C)OC(=O)[C@H](C)NP(=O)(CO[C@@H](CF)Cc1cnn2c(N)ncnc12)Oc1ccccc1 (stereo partly shown) [Compound 62]	< 1000
CC(C)OC(=O)[C@H](C)NP(=O)(CO[C@H](CF)Cc1cnn2c(N)ncnc12)Oc1ccccc1 (stereo partly shown) [Compound 63]	< 1000

Same assay, conditions: Hepatitis B virus; HepG2.117 cells, 72 hours, HBV viral copy numbers in supernatant; read-out: EC50

Structure (SMILES)	EC50 [nM]
Nc1ncnn2c(COCCP(=O)(O)O)ccc12 [Compound 1, (2-((4-aminopyrrolo[2,1-f][1,2,4]triazin-7-yl)methoxy)ethyl)phosphonic Acid]	< 1000
C[C@H](Cc1ccc2c(N)ncnn12)OCP(=O)(O)O [Compound 2, (R)-(((1-(4-aminopyrrolo[2,1-f][1,2,4]triazin-7-yl)propan-2-yl)oxy)methyl)phosphonic Acid]	10000 to 100000
CC(Cc1ccc2c(N)nc(F)nn12)OCP(=O)(O)O (stereo not shown) [Compound 8, (((1-(4-amino-2-fluoropyrrolo[2,1-f][1,2,4]triazin-7-yl)propan-2-yl)oxy)methyl)phosphonic Acid]	10000 to 100000
CC(Cc1ccc2c(N)nc(N)nn12)OCP(=O)(O)O (stereo not shown) [Compound 9, (((1-(2,4-diaminopyrrolo[2,1-f][1,2,4]triazin-7-yl)propan-2-yl)oxy)methyl) phosphonic Acid]	1000 to 10000
Nc1ncnc2c(CC(CF)OCP(=O)(O)O)cnn12 (stereo not shown) [Compound 10, (1-(4-aminopyrazolo[1,5-a][1,3,5]triazin-8-yl)-3-fluoropropan-2-yloxy)methylphosphonic Acid]	1000 to 10000
CC(C)OC(=O)OCOP(=O)(CO[C@H](C)Cc1ccc2c(N)ncnn12)OCOC(=O)OC(C)C [Compound 11]	< 1000
CC(C)OC(=O)OCOP(=O)(COCCc1ccc2c(N)ncnn12)OCOC(=O)OC(C)C [Compound 15]	1000 to 10000
CC(C)OC(=O)OCOP(=O)(COC(CF)Cc1cnn2c(N)ncnc12)OCOC(=O)OC(C)C (stereo not shown) [Compound 16]	< 1000
CC(C)OC(=O)OCOP(=O)(COC(C)Cc1ccc2c(N)nc(N)nn12)OCOC(=O)OC(C)C (stereo not shown) [Compound 18]	1000 to 10000
CC(Cc1cnc2c(=O)[nH]c(N)nn12)OCP(=O)(O)O (stereo not shown) [Compound 48, (((1-(2-amino-4-oxo-3,4-dihydroimidazo[2,1-f][1,2,4]triazin-7-yl)propan-2-yl)oxy)methyl)phosphonic Acid]	< 1000
CC(C)OC(=O)OCOP(=O)(COC(C)Cc1ccc2c(=O)[nH]c(N)nn12)OCOC(=O)OC(C)C (stereo not shown) [Compound 51]	< 1000
Nc1ncnc2c(CC3(OCP(=O)(O)O)CC3)cnn12 [Compound 64, ((1-((4-aminopyrazolo[1,5-a][1,3,5]triazin-8-yl)methyl)cyclopropoxy)methyl) phosphonic Acid]	10000 to 100000
Nc1ncnc2c(C[C@@H](OCP(=O)(O)O)C(F)F)cnn12 [Compound 66, (R)-(((3-(4-aminopyrazolo[1,5-a][1,3,5]triazin-8-yl)-1,1-difluoropropan-2-yl)oxy)methyl)phosphonic Acid]	1000 to 10000
Nc1ncnn2c(C[C@@H](CF)OCP(=O)(O)O)cnc12 [Compound 67, (S)-(((1-(4-aminoimidazo[2,1-f][1,2,4]triazin-7-yl)-3-fluoropropan-2-yl)oxy)methyl) phosphonic Acid]	10000 to 100000
Nc1ncnn2c(C[C@H](CF)OCP(=O)(O)O)cnc12 [Compound 68, (R)-(((1-(4-aminoimidazo[2,1-f][1,2,4]triazin-7-yl)-3-fluoropropan-2-yl)oxy)methyl)phosphonic Acid]	< 1000
